Experimental data: patent US20240335547A1, “MODIFIED CHOLIC ACID CONJUGATES” (priority 2022, published 2024)
In brackets after ≈: the same amount, converted by molar mass.

Assays:
[1] = tested on: HFF (human foreskin fibroblast) cells; test: Cytotoxicity in human primary cell cultures (Trypan Blue Staining); format: cell-based; details: HFF cells, 48 hours, Trypan Blue Staining
Experimental: (1) HFF (human foreskin fibroblast) cells (2×105) were seeded with 2 ml of DMEM medium supplemented with 10% FBS in each well of two 12-well tissue culture plates. (2) Cells were cultured for 3 days. CSA-44 was added to test for cell toxicity. Eleven concentrations were tested: 40 μg/ml, 30 μg/ml, […], 17.5 μg/ml, 15 μg/ml, 12.5 μg/ml, 10 μg/ml, 7.5 μg/ml, 5 μg/ml, 2.5 μg/ml, and 1 μg/ml. Samples with concentration of 0 μg/ml were used as the control. Each concentration was tested in duplicates with two wells. (3) Cells were cultured for 48 hours with CSA-44. Trypan Blue Staining was used to determine the numbers of living and dead cells on a hemocytometer. Percentages of living and dead cells in each sample were calculated.
(1) HFF cells (2×105) were seeded with 2 ml of DMEM medium supplemented with 10% FBS in each well of two 12-well tissue culture plates. (2) Cells were cultured for 3 days. CMA Conjugate was added to test for cell toxicity. Eleven concentrations were tested. They were 100 μg/ml, 80 μg/ml, 60 μg/ml, 50 μg/ml, 40 μg/ml, 30 μg/ml, 25 μg/ml, 20 μg/ml, 15 μg/ml, 10 μg/ml, and 5 μg/ml. Samples with concentration of 0 μg/ml were used as the control. Each concentration was tested in duplicates with two wells. (3) Cells were cultured for 48 hours with CMA Conjugate. […] Percentages of living and dead cells in each sample were calculated.

human coronavirus 229E = test: Therapeutic activity against human coronavirus 229E in HFF cells; format: cell-based; details: added 24 hours post infection, cell viability
Experimental: (1) HFF cells (5×104) were seeded with 1 ml of DMEM media supplemented with 10% FBS in each well of four 24-well tissue culture plates. (2) Cell were cultured for 3 days until HFF cells in each well attained 90% confluency (media was changed 1 day before infection). 10 μl of the 10-time diluted original solution of coronavirus, about 1×10^5 PFU were added into each well. Infection was allowed to proceed overnight. (3) The media was changed 24 hours post infection. CSA-44 was added to test their anti-viral effects. Ten different concentrations of the drug were tested. They were 15 μg/ml, 10 μg/ml, 9 μg/ml, 8 μg/ml, 7 μg/ml, 6 μg/ml, 5 μg/ml, 4 μg/ml, 3 μg/ml, and 2 μg/ml with 0 μg/ml as the control. Each concentration has 12 wells for test. Cells were cultured for two weeks, and cell viability was quantified. CSA-44 was effective in inhibiting viral replication and growth. The values of EC50 (where EC is the concentration of the active that gives 50% of the maximal response) of CSA-44 is identified as 4 μg/ml.
(1) HFF cells (5×104) were seeded with 1 ml of DMEM media supplemented with 10% FBS in each well of four 24-well tissue culture plates. (2) Cells were cultured for 3 days until HFF cells in each well attained 90% confluency (media was changed 1 day before infection). Ten μl of the 10-time diluted original solution of coronavirus, about 1×10^5 PFU, were added into each well. Infection was allowed to proceed overnight. (3) The media was changed 24 hours post infection. Different concentrations of CSA-44 were added to test their anti-viral effects. Each concentration has 12 wells for test. Cells were cultured in the presence of CSA-44 for […] and cell viability was quantified.
(1) HFF cells (5×104) were seeded with 1 ml of DMEM media supplemented with 10% FBS in each well of four 24-well tissue culture plates. (2) Cells were cultured for 3 days until HFF cells in each well attained 90% confluency (media was changed 1 day before infection). […] Cells were cultured for two weeks, and cell viability was quantified. […]

What does the source list for `CCCCCCCCOC(=O)CC[C@@H](C)[C@H]1CC[C@H]2[C@@H]3[C@H](OC(=O)CCN)C[C@@H]4C[C@H](OC(=O)CCN)CC[C@]4(C)[C@H]3C[C@H](OC(=O)CCN)[C@]12C` [CSA-44]?
CC50 [1]: around 15 μg/ml; EC50 (human coronavirus 229E; cells cultured for three weeks): ~4 µg/mL (≈ 5.45 µM); EC50 (human coronavirus 229E; cells cultured for two weeks): 4 µg/mL (≈ 5.45 µM)
